In this assay the target is T1, mouse VISTA (mVISTA) (Mus musculus, UniProt Q9D659).
T1 construct: expressed in transfected cells; host or cells: Human embryonic kidney 293T cells
T1 sequence (Q9D659 33-308): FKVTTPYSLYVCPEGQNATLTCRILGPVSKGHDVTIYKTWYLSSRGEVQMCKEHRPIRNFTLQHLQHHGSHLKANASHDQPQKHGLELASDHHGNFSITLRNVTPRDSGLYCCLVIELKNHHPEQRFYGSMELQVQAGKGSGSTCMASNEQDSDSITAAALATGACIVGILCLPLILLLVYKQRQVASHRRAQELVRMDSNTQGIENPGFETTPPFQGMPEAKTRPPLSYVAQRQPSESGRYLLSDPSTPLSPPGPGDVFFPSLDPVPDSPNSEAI
Kind of assay: Cell-Based Binding High-Content Assay For mVISTA (HC CBA mVISTA). The note with it: cell-based binding high-content assay, mVISTA; read-out: HC CBA miPr ISTA IC50. Summed up: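 Competition of compound with a biotinylated peptide (final 2 nM, 30 min at RT) for binding to mVISTA on 293T cells, run under no-wash or wash (1 h compound preincubation then removal) formats. Readout by Alexa 647–streptavidin imaging on a high-content platform; four-parameter logistic fit gave IC50.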

From patent publication US20240218022A1, “ANTI-VISTA MACROCYCLIC PEPTIDES AND COMPOSITIONS” (BRISTOL-MYERS SQUIBB COMPANY, priority 2022, published 2024) come the findings set out here.

pIC50: −log10 of the molar value. Starred links: 1 amine or outer side, 2 acyl side, 3 side chain; linkers in the order of their positions; H or OH if unused. Positions of bridges follow the written chain, without caps; N, C: chain ends. Non-standard residues stand in square brackets, D forms with d. Residues, ends and D or L forms follow the SMILES beside them. ξ: configuration not given here. βAsp = O=C(O)[C@H](CC(=O)[*:2])N[*:1]; NMeThr(3ξ) = CN[C@H](C(=O)O)C(C)O; NMeL = CN[C@@H](CC(C)C)C(=O)O; Ahp(2) = CCCCC[C@H](N)C(=O)O; NMeNle = CCCC[C@H](NC)C(=O)O; Tle = CC(C)(C)[C@H](N)C(=O)O; NMeV = CN[C@H](C(=O)O)C(C)C; NMeS = CN[C@@H](CO)C(=O)O; NHexGly = CCCCCCNCC(=O)O; Aun = NCCCCCCCCCCC(=O)O; AEEA = NCCOCCOCC(=O)O

In general, pIC50 refers to the negative decadic logarithm of the IC50, by convention in mol/L. Regarding `CCCCCCN1CC(=O)N[C@@H](Cc2ccc(O)cc2)C(=O)N[C@@H](CC(C)C)C(=O)N[C@@H](CC(N)=O)C(=O)N[C@@H](CCCNC(=N)N)C(=O)N(C)[C@@H](CCCC)C(=O)N[C@@H](CCCCC)C(=O)N2CCC[C@H]2C(=O)N[C@@H](C(C)(C)C)C(=O)N[C@@H](CO)C(=O)N[C@H](C(=O)N[C@@H](CC(=O)NCCOCCOCC(=O)N[C@@H](CC(=O)O)C(=O)NCCOCCOCC(=O)NCCCCCCCCCCC(=O)O)C(=O)O)CSCC(=O)N[C@@H](Cc2ccccc2)C(=O)N[C@@H](Cc2ccc(O)cc2)C(=O)N[C@@H](CC(=O)O)C1=O` [compound 2030] ({CH2CO}-FYD[NHexGly]YLNR[NMeNle][Ahp(2)]P[Tle]SC[βAsp][AEEA]D[AEEA][Aun]-OH; thioether N-14), the negative logarithm of the IC50 (pIC50) was 7.64.

Consider `CCCCCCN1CC(=O)N[C@@H](Cc2ccc(O)cc2)C(=O)N[C@@H](CC(C)C)C(=O)N[C@@H](CC(N)=O)C(=O)N[C@@H](CCCNC(=N)N)C(=O)N(C)[C@@H](CC(C)C)C(=O)N[C@@H](CCCCC)C(=O)N2CCC[C@H]2C(=O)N[C@@H](C(C)(C)C)C(=O)N[C@@H](CO)C(=O)N[C@H](C(=O)N[C@@H](CC(=O)NCCOCCOCC(=O)N[C@@H](CC(=O)O)C(=O)NCCOCCOCC(=O)NCCCCCCCCCCC(=O)O)C(=O)O)CSCC(=O)N[C@@H](Cc2ccccc2)C(=O)N[C@@H](Cc2ccc(O)cc2)C(=O)N[C@@H](CC(=O)O)C1=O` [compound 2031] ({CH2CO}-FYD[NHexGly]YLNR[NMeL][Ahp(2)]P[Tle]SC[βAsp][AEEA]D[AEEA][Aun]-OH; thioether N-14), for which the negative-log IC50 (pIC50) was 7.84.

With `CCCCCCN1CC(=O)N[C@@H](Cc2ccc(O)cc2)C(=O)N[C@@H](CC(C)C)C(=O)N[C@@H](CC(N)=O)C(=O)N[C@@H](CCCNC(=N)N)C(=O)N(C)[C@@H](CC(C)C)C(=O)N[C@@H](CCCCC)C(=O)N2CCC[C@H]2C(=O)N[C@@H](C(C)(C)C)C(=O)N[C@@H](CC(=O)O)C(=O)N[C@H](C(=O)N[C@@H](CC(=O)NCCOCCOCC(=O)N[C@@H](CC(=O)O)C(=O)NCCOCCOCC(=O)NCCCCCCCCCCC(=O)O)C(=O)O)CSCC(=O)N[C@@H](Cc2ccccc2)C(=O)N[C@@H](Cc2c[nH]c3ccccc23)C(=O)N[C@@H](CC(=O)O)C1=O` [compound 2032] ({CH2CO}-FWD[NHexGly]YLNR[NMeL][Ahp(2)]P[Tle]DC[βAsp][AEEA]D[AEEA][Aun]-OH; thioether N-14), the pIC50 was 7.55.

Consider `CCCCCCN1CC(=O)N[C@@H](Cc2ccc(O)cc2)C(=O)N[C@@H](CC(C)C)C(=O)N[C@@H](CC(N)=O)C(=O)N[C@@H](CCCNC(=N)N)C(=O)N(C)[C@@H](CO)C(=O)N[C@@H](CCCCC)C(=O)N2CCC[C@H]2C(=O)N[C@@H](C(C)(C)C)C(=O)N[C@@H](CO)C(=O)N[C@H](C(=O)N[C@@H](CC(=O)NCCOCCOCC(=O)N[C@@H](CC(=O)O)C(=O)NCCOCCOCC(=O)NCCCCCCCCCCC(=O)O)C(=O)O)CSCC(=O)N[C@@H](Cc2ccccc2)C(=O)N[C@@H](Cc2ccc(O)cc2)C(=O)N[C@@H](CC(=O)O)C1=O` [compound 2033] ({CH2CO}-FYD[NHexGly]YLNR[NMeS][Ahp(2)]P[Tle]SC[βAsp][AEEA]D[AEEA][Aun]-OH; thioether N-14), for which the pIC50 was 7.74.

As for `CCCCCCN1CC(=O)N[C@@H](Cc2ccc(O)cc2)C(=O)N[C@@H](CC(C)C)C(=O)N[C@@H](CC(N)=O)C(=O)N[C@@H](CCCNC(=N)N)C(=O)N(C)[C@@H](CO)C(=O)N[C@@H](CCCCC)C(=O)N2CCC[C@H]2C(=O)N[C@@H](C(C)(C)C)C(=O)N[C@@H](CC(=O)O)C(=O)N[C@H](C(=O)N[C@@H](CC(=O)NCCOCCOCC(=O)N[C@@H](CC(=O)O)C(=O)NCCOCCOCC(=O)NCCCCCCCCCCC(=O)O)C(=O)O)CSCC(=O)N[C@@H](Cc2ccccc2)C(=O)N[C@@H](Cc2c[nH]c3ccccc23)C(=O)N[C@@H](CC(=O)O)C1=O` [compound 2034] ({CH2CO}-FWD[NHexGly]YLNR[NMeS][Ahp(2)]P[Tle]DC[βAsp][AEEA]D[AEEA][Aun]-OH; thioether N-14), the negative logarithm of the IC50 (pIC50) is 7.36.

On to `CCCCCCN1CC(=O)N[C@@H](Cc2ccc(O)cc2)C(=O)N[C@@H](CC(C)C)C(=O)N[C@@H](CC(N)=O)C(=O)N[C@@H](CCCNC(=N)N)C(=O)N(C)[C@@H](CO)C(=O)N[C@@H](CCCCC)C(=O)N2CCC[C@H]2C(=O)N[C@@H](C(C)(C)C)C(=O)N[C@@H](CC(=O)O)C(=O)N[C@H](C(=O)N[C@@H](CC(=O)NCCOCCOCC(=O)N[C@@H](CC(=O)O)C(=O)NCCOCCOCC(=O)NCCCCCCCCCCC(=O)O)C(=O)O)CSCC(=O)N[C@@H](Cc2ccccc2)C(=O)N[C@@H](Cc2ccc(O)cc2)C(=O)N[C@@H](CC(=O)O)C1=O` [compound 2035] ({CH2CO}-FYD[NHexGly]YLNR[NMeS][Ahp(2)]P[Tle]DC[βAsp][AEEA]D[AEEA][Aun]-OH; thioether N-14), for which the pIC50 is 7.43.

Turning to `CCCCCCN1CC(=O)N[C@@H](Cc2ccc(O)cc2)C(=O)N[C@@H](CC(C)C)C(=O)N[C@@H](CC(N)=O)C(=O)N[C@@H](CCCNC(=N)N)C(=O)N(C)[C@@H](C(C)O)C(=O)N[C@@H](CCCCC)C(=O)N2CCC[C@H]2C(=O)N[C@@H](C(C)(C)C)C(=O)N[C@@H](CO)C(=O)N[C@H](C(=O)N[C@@H](CC(=O)NCCOCCOCC(=O)N[C@@H](CC(=O)O)C(=O)NCCOCCOCC(=O)NCCCCCCCCCCC(=O)O)C(=O)O)CSCC(=O)N[C@@H](Cc2ccccc2)C(=O)N[C@@H](Cc2ccc(O)cc2)C(=O)N[C@@H](CC(=O)O)C1=O` (stereo partly drawn) [compound 2036] ({CH2CO}-FYD[NHexGly]YLNR[NMeThr(3ξ)][Ahp(2)]P[Tle]SC[βAsp][AEEA]D[AEEA][Aun]-OH; thioether N-14), the negative-log IC50 (pIC50) is 7.31.

Consider `CCCCCCN1CC(=O)N[C@@H](Cc2ccc(O)cc2)C(=O)N[C@@H](CC(C)C)C(=O)N[C@@H](CC(N)=O)C(=O)N[C@@H](CCCNC(=N)N)C(=O)N(C)[C@@H](C(C)C)C(=O)N[C@@H](CCCCC)C(=O)N2CCC[C@H]2C(=O)N[C@@H](C(C)(C)C)C(=O)N[C@@H](CC(=O)O)C(=O)N[C@H](C(=O)N[C@@H](CC(=O)NCCOCCOCC(=O)N[C@@H](CC(=O)O)C(=O)NCCOCCOCC(=O)NCCCCCCCCCCC(=O)O)C(=O)O)CSCC(=O)N[C@@H](Cc2ccccc2)C(=O)N[C@@H](Cc2ccc(O)cc2)C(=O)N[C@@H](CC(=O)O)C1=O` [compound 2037] ({CH2CO}-FYD[NHexGly]YLNR[NMeV][Ahp(2)]P[Tle]DC[βAsp][AEEA]D[AEEA][Aun]-OH; thioether N-14), for which the negative logarithm of the IC50 (pIC50) is 7.46.

Consider `CCCCCCN1CC(=O)N[C@@H](Cc2ccc(O)cc2)C(=O)N[C@@H](CC(C)C)C(=O)N[C@@H](CC(N)=O)C(=O)N[C@@H](CCCNC(=N)N)C(=O)N(C)[C@@H](C(C)C)C(=O)N[C@@H](CCCCC)C(=O)N2CCC[C@H]2C(=O)N[C@@H](C(C)(C)C)C(=O)N[C@@H](CO)C(=O)N[C@H](C(=O)N[C@@H](CC(=O)NCCOCCOCC(=O)N[C@@H](CC(=O)O)C(=O)NCCOCCOCC(=O)NCCCCCCCCCCC(=O)O)C(=O)O)CSCC(=O)N[C@@H](Cc2ccccc2)C(=O)N[C@@H](Cc2c[nH]c3ccccc23)C(=O)N[C@@H](CC(=O)O)C1=O` [compound 2039] ({CH2CO}-FWD[NHexGly]YLNR[NMeV][Ahp(2)]P[Tle]SC[βAsp][AEEA]D[AEEA][Aun]-OH; thioether N-14), for which the negative logarithm of the IC50 (pIC50) is 7.62.
